{"source": "the supplement of paper PMC11208160", "data": [{"test": "recombinant UMI read abundance after kanamycin selection (control-corrected) (log10(CPM+1)); higher = more efficient recombination; extreme values may be limits of the assay; sequences stand for … in AGTGCAGAGAAAATCGGCCAGTTTTCTCTGCCTGCAGTCCGCATGCCGTGGGACCCCTTGGGTTCTAACCTGTTGCCTAGATTTATGCAGCGGACTGCCTTTCTCCCAAAGTGATAAACCGG…AGGTTGGTTTCACT; site = the 11-nt donor", "summary_of_the_method": "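Pooled Escherichia coli screen of donor and donor-binding-loop pairs for the IS621 bridge recombinase. Each pair sits with a 12-nt UMI on a plasmid carrying a promoterless kanamycin gene. The library was co-electroporated with a target plasmid encoding a fixed target and T7-inducible recombinase, then plated with IPTG (0.07 mM) plus kanamycin, or unselected, each in two replicates. Recombinant UMIs were PCR-amplified across the donor–target junction and sequenced. Counts became CPM, averaged over replicates, scaled by control-derived factors and reported as log10(CPM+1).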", "values": [{"sequence": "GTAGGTACATGGACCGGTTTTCCCGGTAATCCGTATTTGTC (site GTAGGTACTGG)", "recombinant UMI read abundance (log10)": 1.97}, {"sequence": "GTAGGTACATGGACCGGTTTTCCCGGTAATCCGTATTTGTC (site GTAGGTACTGT)", "recombinant UMI read abundance (log10)": 1.35}, {"sequence": "GTAGTAGCATGGACCGGTTTTCCCGGTAATCCGTATTTGCG (site GTAGTAGCTCG)", "recombinant UMI read abundance (log10)": 2.62}, {"sequence": "GTAGTAGCATGGACCGGTTTTCCCGGTAATCCGTATTTGCG (site GTAGTCGCTCG)", "recombinant UMI read abundance (log10)": 0.72}, {"sequence": "GTAGTAGCATGGACCGGTTTTCCCGGTAATCCGTATTTGCG (site GTAGTGGCTCG)", "recombinant UMI read abundance (log10)": 1.53}, {"sequence": "GTAGTAGCATGGACCGGTTTTCCCGGTAATCCGTATTTGCG (site GTAGTTGCTCG)", "recombinant UMI read abundance (log10)": 1.32}, {"sequence": "GTAGTATCATGGACCGGTTTTCCCGGTAATCCGTATTTGAC (site ATAGTATCTGT)", "recombinant UMI read abundance (log10)": 3.09}, {"sequence": "GTAGTATCATGGACCGGTTTTCCCGGTAATCCGTATTTGAC (site CTAGTATCTGT)", "recombinant UMI read abundance (log10)": 2.47}, {"sequence": "GTAGTATCATGGACCGGTTTTCCCGGTAATCCGTATTTGAC (site GTAGTATCTGT)", "recombinant UMI read abundance (log10)": 3.41}, {"sequence": "GTAGTATCATGGACCGGTTTTCCCGGTAATCCGTATTTGAC (site TTAGTATCTGT)", "recombinant UMI read abundance (log10)": 2.29}, {"sequence": "GTAGTATCATGGACCGGTTTTCCCGGTAATCCGTATTTGCC (site GTAGTATCTGG)", "recombinant UMI read abundance (log10)": 2.55}, {"sequence": "GTAGTATCATGGACCGGTTTTCCCGGTAATCCGTATTTGGC (site CTAGTATCTGT)", "recombinant UMI read abundance (log10)": 0.582}, {"sequence": "GTAGTATCATGGACCGGTTTTCCCGGTAATCCGTATTTGGC (site GTAGTATCTGC)", "recombinant UMI read abundance (log10)": 3.51}, {"sequence": "GTAGTCGCATGGACCGGTTTTCCCGGTAATCCGTATTTGCG (site ATAGTCGCTCG)", "recombinant UMI read abundance (log10)": 0.405}, {"sequence": "GTAGTCGCATGGACCGGTTTTCCCGGTAATCCGTATTTGCG (site CTAGTCGCTCG)", "recombinant UMI read abundance (log10)": 0.145}, {"sequence": "GTAGTCGCATGGACCGGTTTTCCCGGTAATCCGTATTTGCG (site GAAGTCGCTCG)", "recombinant UMI read abundance (log10)": 0.0146}, {"sequence": "GTAGTCGCATGGACCGGTTTTCCCGGTAATCCGTATTTGCG (site GCAGTCGCTCG)", "recombinant UMI read abundance (log10)": 0.162}, {"sequence": "GTAGTCGCATGGACCGGTTTTCCCGGTAATCCGTATTTGCG (site GGAGTCGCTCG)", "recombinant UMI read abundance (log10)": 0.0136}, {"sequence": "GTAGTCGCATGGACCGGTTTTCCCGGTAATCCGTATTTGCG (site GTAATCGCTCG)", "recombinant UMI read abundance (log10)": 1.31}, {"sequence": "GTAGTCGCATGGACCGGTTTTCCCGGTAATCCGTATTTGCG (site GTACTCGCTCG)", "recombinant UMI read abundance (log10)": 0.0126}, {"sequence": "GTAGTCGCATGGACCGGTTTTCCCGGTAATCCGTATTTGCG (site GTAGACGCTCG)", "recombinant UMI read abundance (log10)": 0.714}, {"sequence": "GTAGTCGCATGGACCGGTTTTCCCGGTAATCCGTATTTGCG (site GTAGCCGCTCG)", "recombinant UMI read abundance (log10)": 0.584}, {"sequence": "GTAGTCGCATGGACCGGTTTTCCCGGTAATCCGTATTTGCG (site GTAGGCGCTCG)", "recombinant UMI read abundance (log10)": 0.0201}, {"sequence": "GTAGTCGCATGGACCGGTTTTCCCGGTAATCCGTATTTGCG (site GTAGTAGCTCG)", "recombinant UMI read abundance (log10)": 0.489}, {"sequence": "GTAGTCGCATGGACCGGTTTTCCCGGTAATCCGTATTTGCG (site GTAGTCACTCG)", "recombinant UMI read abundance (log10)": 1.24}, {"sequence": "GTAGTCGCATGGACCGGTTTTCCCGGTAATCCGTATTTGCG (site GTAGTCCCTCG)", "recombinant UMI read abundance (log10)": 0.553}, {"sequence": "GTAGTCGCATGGACCGGTTTTCCCGGTAATCCGTATTTGCG (site GTAGTCGCTAG)", "recombinant UMI read abundance (log10)": 1.23}, {"sequence": "GTAGTCGCATGGACCGGTTTTCCCGGTAATCCGTATTTGCG (site GTAGTCGCTCA)", "recombinant UMI read abundance (log10)": 0.421}, {"sequence": "GTAGTCGCATGGACCGGTTTTCCCGGTAATCCGTATTTGCG (site GTAGTCGCTCC)", "recombinant UMI read abundance (log10)": 0.0196}, {"sequence": "GTAGTCGCATGGACCGGTTTTCCCGGTAATCCGTATTTGCG (site GTAGTCGCTCG)", "recombinant UMI read abundance (log10)": 1.61}, {"sequence": "GTAGTCGCATGGACCGGTTTTCCCGGTAATCCGTATTTGCG (site GTAGTCGCTCT)", "recombinant UMI read abundance (log10)": 0.471}, {"sequence": "GTAGTCGCATGGACCGGTTTTCCCGGTAATCCGTATTTGCG (site GTAGTCGCTGG)", "recombinant UMI read abundance (log10)": 1.34}]}]}
